# Test results reported in US11306092B2, “Amino indole compounds useful as TLR inhibitors” (BRISTOL-MYERS SQUIBB COMPANY, priority 2017, dated 2022).
# pIC50: −log10 of the molar value.
# Legend:
# Assay type in all cases: cell-based
# human TLR7 = target: T1, human TLR7 (Homo sapiens, UniProt Q9NYK1); assay: TLR7 inhibition reporter assay (HEK-Blue SEAP reporter); settings: HEK-Blue cells overexpressing human TLR7; gardiquimod 7.5 μM; 22 hour incubation
# T1 construct: host or cells: HEK-Blue cells
# T1 sequence (Q9NYK1 27-1049): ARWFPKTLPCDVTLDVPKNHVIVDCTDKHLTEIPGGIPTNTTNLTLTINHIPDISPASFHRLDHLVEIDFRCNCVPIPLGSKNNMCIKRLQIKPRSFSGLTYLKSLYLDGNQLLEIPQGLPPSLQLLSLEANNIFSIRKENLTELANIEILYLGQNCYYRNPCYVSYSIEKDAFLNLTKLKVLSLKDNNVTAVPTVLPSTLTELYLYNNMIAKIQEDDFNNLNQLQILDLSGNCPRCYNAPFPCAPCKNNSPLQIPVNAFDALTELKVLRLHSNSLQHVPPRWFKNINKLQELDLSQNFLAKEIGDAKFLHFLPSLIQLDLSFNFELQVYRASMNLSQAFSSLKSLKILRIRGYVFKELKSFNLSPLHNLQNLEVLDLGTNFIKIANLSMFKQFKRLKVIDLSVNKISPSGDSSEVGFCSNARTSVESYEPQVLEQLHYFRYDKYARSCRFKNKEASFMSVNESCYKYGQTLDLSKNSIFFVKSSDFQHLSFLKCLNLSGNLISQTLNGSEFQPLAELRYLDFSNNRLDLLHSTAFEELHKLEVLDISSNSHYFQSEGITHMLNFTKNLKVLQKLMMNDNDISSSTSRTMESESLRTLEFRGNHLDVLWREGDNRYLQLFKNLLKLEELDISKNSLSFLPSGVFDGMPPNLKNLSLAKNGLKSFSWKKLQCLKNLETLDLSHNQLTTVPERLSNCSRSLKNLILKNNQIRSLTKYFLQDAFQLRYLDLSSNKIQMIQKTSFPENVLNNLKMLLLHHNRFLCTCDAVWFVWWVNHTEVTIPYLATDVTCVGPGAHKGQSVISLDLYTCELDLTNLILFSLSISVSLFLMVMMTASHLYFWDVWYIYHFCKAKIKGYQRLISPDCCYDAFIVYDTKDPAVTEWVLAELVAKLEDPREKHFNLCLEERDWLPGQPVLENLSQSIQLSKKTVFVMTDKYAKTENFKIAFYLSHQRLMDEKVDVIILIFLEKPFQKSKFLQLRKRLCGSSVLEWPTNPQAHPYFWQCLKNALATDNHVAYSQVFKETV
# How it was run: (§1)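 Agonists used: gardiquimod 7.5 μM (TLR7), R848 15.9 μM (TLR8), ODN2006 5 nM (TLR9), added after 30 min room-temperature compound pre-treatment (0.05 nM–50 μM) of receptor-overexpressing HEK-Blue cells. SEAP reporter (NF-κB/AP-1 driven) read after 22 h at 37 °C; inhibition scaled between agonist+DMSO and reference-inhibitor wells.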
# human TLR8 = target: T2, human TLR8 (Homo sapiens, UniProt Q9NR97); assay: TLR8 inhibition reporter assay (HEK-Blue SEAP reporter); settings: HEK-Blue cells overexpressing human TLR8; R848 15.9 μM; 22 hour incubation
# T2 construct: host or cells: HEK-Blue cells
# T2 sequence (Q9NR97 27-1041): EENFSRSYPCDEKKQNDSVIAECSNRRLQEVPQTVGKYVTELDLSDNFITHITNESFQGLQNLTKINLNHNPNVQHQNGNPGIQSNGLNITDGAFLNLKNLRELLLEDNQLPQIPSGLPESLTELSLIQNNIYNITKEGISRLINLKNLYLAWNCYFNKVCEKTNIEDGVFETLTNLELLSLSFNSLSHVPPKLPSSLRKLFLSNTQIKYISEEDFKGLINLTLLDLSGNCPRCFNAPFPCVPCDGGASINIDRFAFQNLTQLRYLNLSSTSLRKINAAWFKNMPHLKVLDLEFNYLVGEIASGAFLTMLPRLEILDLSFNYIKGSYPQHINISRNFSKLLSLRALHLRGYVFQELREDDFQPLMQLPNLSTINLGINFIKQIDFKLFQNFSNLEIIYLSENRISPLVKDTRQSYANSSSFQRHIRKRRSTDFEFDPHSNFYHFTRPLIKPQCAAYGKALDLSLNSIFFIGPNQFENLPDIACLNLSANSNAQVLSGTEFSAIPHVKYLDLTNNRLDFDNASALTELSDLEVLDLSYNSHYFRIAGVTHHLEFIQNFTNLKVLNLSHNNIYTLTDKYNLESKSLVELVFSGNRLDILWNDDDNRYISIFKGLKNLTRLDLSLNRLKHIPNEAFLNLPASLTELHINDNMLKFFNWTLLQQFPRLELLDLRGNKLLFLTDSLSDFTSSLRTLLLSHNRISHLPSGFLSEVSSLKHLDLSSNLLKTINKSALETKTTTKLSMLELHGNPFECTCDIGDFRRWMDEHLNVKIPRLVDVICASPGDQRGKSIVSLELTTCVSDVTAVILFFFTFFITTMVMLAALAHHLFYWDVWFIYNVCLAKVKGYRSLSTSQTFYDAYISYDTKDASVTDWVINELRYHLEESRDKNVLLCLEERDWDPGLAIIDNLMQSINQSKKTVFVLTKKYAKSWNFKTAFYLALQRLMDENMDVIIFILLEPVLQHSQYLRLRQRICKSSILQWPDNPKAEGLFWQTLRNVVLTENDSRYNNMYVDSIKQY
# How it was run: as §1
# human TLR9 = target: T3, human TLR9 (Homo sapiens, UniProt Q9NR96); assay: TLR9 inhibition reporter assay (HEK-Blue SEAP reporter); settings: HEK-Blue cells overexpressing human TLR9; ODN2006 5 nM; 22 hour incubation
# T3 construct: host or cells: HEK-Blue cells
# T3 sequence (Q9NR96 26-1032): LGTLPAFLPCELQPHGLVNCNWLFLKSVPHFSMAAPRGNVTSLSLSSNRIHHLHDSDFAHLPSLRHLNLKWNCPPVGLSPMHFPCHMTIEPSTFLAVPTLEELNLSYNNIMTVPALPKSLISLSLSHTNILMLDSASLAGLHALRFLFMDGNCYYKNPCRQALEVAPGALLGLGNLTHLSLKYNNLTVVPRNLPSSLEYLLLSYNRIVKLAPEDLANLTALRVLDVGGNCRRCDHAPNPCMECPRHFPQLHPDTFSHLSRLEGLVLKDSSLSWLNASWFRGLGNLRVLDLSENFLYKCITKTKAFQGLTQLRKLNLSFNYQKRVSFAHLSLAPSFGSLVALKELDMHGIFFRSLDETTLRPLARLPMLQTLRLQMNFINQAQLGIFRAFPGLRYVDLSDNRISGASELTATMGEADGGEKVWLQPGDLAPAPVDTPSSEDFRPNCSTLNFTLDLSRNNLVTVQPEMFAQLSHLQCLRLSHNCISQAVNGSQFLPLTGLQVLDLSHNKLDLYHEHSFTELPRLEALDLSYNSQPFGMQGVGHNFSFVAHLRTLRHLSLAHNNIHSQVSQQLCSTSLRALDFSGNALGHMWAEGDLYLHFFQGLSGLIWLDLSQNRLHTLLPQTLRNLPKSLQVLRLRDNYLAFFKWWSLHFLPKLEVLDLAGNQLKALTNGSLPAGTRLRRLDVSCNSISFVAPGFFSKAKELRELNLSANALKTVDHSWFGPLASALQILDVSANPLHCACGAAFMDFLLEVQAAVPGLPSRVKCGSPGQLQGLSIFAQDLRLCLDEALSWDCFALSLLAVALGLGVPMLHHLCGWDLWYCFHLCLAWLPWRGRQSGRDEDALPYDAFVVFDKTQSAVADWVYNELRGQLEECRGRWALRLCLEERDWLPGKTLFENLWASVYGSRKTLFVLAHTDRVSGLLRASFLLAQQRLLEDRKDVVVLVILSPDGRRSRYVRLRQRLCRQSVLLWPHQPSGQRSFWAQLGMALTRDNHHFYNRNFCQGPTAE
# How it was run: as §1
pIC50 (human TLR7),pIC50 (human TLR8),pIC50 (human TLR9),Compound
7.23,8.01,6.17,"CCc1c(-c2cc(OC)nc(OC)c2)[nH]c2ccc(N3CCN(C4CCN(C(C)C)CC4)CC3)cc12 [Example 173, 2-(2,6-dimethoxypyridin-4-yl)-3-ethyl-5-(4-(1-isopropylpiperidin-4-yl)piperazin-1-yl)-1H-indole]"
8.12,7.96,6.58,"Cc1cc2[nH]c(-c3ccnc4[nH]ncc34)c(C(C)C)c2cc1N1CCN(C2CCN(C(C)C)CC2)CC1 [Example 175, 4-(3-isopropyl-5-(4-(1-isopropylpiperidin-4-yl)piperazin-1-yl)-6-methyl-1H-indol-2-yl)-1H-pyrazolo[3,4-b]pyridine]"
7.17,7.55,6.06,"CCc1c(-c2ccc(OC)c(OC)c2)[nH]c2ccc(N3CCN(C4CC(C)(C)NC(C)(C)C4)CC3)cc12 [Example 176, 2-(3,4-dimethoxyphenyl)-3-ethyl-5-(4-(2,2,6,6-tetramethylpiperidin-4-yl)piperazin-1-yl)-1H-indole]"
6.78,7.96,5.81,"CCc1c(-c2ccc(OC)c(OC)c2)[nH]c2ccc(N3CCN(C4CCN(CC(C)C)CC4)CC3)cc12 [Example 177, 2-(3,4-dimethoxyphenyl)-3-ethyl-5-(4-(1-isobutylpiperidin-4-yl)piperazin-1-yl)-1H-indole]"
7.27,7.13,6.29,"CCc1c(-c2ccc(OC)c(OC)c2)[nH]c2ccc(N3CCC4(CCN(C)CC4)CC3)cc12 [Example 181, 3-(2-(3,4-dimethoxyphenyl)-3-ethyl-1H-indol-5-yl)-9-methyl-3,9-diazaspiro[5.5]undecane]"
7.02,7.23,6.17,"CCc1c(-c2ccc(OC)c(OC)c2)[nH]c2ccc(N3CCC4(CC3)CCN(C(C)C)CC4)cc12 [Example 183, 3-(2-(3,4-dimethoxyphenyl)-3-ethyl-1H-indol-5-yl)-9-isopropyl-3,9-diazaspiro[5.5]undecane]"
4.82,4.73,5.85,"CCc1c(-c2ccnc3[nH]ncc23)[nH]c2ccc(N3CCC(OC4CCN(C(C)C)CC4)CC3)cc12 [Example 185, 4-(3-ethyl-5-(4-((1-isopropylpiperidin-4-yl)oxy)piperidin-1-yl)-1H-indol-2-yl)-1H-pyrazolo[3,4-b]pyridine]"
5.92,5.80,5.54,"CCc1c(-c2ccc(OC)c(OC)c2)[nH]c2cc(C)c(N3CCC4(CC3)CCN(C(C)C)CC4)cc12 [Example 186, 3-(2-(3,4-dimethoxyphenyl)-3-ethyl-6-methyl-1H-indol-5-yl)-9-isopropyl-3,9-diazaspiro[5.5]undecane]"
7.08,6.78,5.84,"COc1ccc(-c2[nH]c3ccc(N4CCC(OC5CCN(C)CC5)CC4)cc3c2C(C)C)cc1OC [Example 187, 2-(3,4-dimethoxyphenyl)-3-isopropyl-5-(4-((1-methylpiperidin-4-yl)oxy)piperidin-1-yl)-1H-indole]"
7.48,7.46,6.18,"CCN1CCC(OC2CCN(c3ccc4[nH]c(-c5ccc(OC)c(OC)c5)c(C(C)C)c4c3)CC2)CC1 [Example 190, 2-(3,4-dimethoxyphenyl)-5-(4-((1-ethylpiperidin-4-yl)oxy)piperidin-1-yl)-3-isopropyl-1H-indole]"
7.06,7.18,6.08,"CCc1c(-c2ccc(OC)c(OC)c2)[nH]c2ccc(N3CCC(OC4CCN(C(C)C)CC4)CC3)cc12 [Example 191, 2-(3,4-dimethoxyphenyl)-3-ethyl-5-(4-((1-isopropylpiperidin-4-yl)oxy)piperidin-1-yl)-1H-indole]"
7.44,8.11,6.49,"COc1ccc(-c2[nH]c3ccc(N4CCC(NC5CCN(C(C)C)CC5)CC4)cc3c2C(C)C)cc1OC [Example 192, 1-(2-(3,4-dimethoxyphenyl)-3-isopropyl-1H-indol-5-yl)-N-(1-isopropylpiperidin-4-yl)piperidin-4-amine]"
